Measured values taken from article PMC10970644, “Molecular Pharmacology of Gelsemium Alkaloids on Inhibitory Receptors” (International Journal of Molecular Sciences, 2024).
Where two headings read alike, the source gives them in different places.

Key:
α1GlyR F63A = molecular target: T1, α1GlyR F63A (Rattus norvegicus, UniProt P07727, F91A); type: cell-based
T1 construct: expressed in transfected cells; host or cells: HEK293 (ATCC CRL-1573)
T1 sequence (P07727 29-457 F91A): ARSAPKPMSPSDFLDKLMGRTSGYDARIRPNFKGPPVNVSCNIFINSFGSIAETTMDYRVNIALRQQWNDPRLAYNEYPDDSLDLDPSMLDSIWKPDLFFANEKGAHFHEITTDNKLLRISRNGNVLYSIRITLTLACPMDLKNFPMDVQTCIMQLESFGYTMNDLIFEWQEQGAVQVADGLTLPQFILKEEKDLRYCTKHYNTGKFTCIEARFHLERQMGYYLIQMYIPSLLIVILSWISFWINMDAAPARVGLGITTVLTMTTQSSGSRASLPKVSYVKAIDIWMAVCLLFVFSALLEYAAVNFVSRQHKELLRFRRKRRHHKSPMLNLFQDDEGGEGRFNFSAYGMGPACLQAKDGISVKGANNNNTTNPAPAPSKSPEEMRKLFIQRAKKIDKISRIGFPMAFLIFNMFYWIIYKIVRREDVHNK
Description: (§1) The cells were transfected with plasmids encoding the following proteins: (i). rat GlyR α (1, 2, 3) subunits alone or combined with rat β subunits (Uniprot Accession Numbers: Q546L7, P22771, P20236, P20781); and (ii). rat GABAAR α1 combined with rat β2 and γ2 subunits (Uniprot Accession Numbers: P62813, P63138, P18508). The EGFP expression was used as a marker of successful protein expression. The transfection was performed using Lipofectamine 2000 (Invitrogen, ThermoFisher, Carlsbad, CA, USA) using the fabricant protocol. The plasmids used to express GlyRs and GABAARs have been previously described. To track the successful expression of GlyR β subunits and the GABAA γ2 or β2 subunit, these proteins were subcloned in the pIRES2-EGFP vector. The transfection ratio to obtain β-containing GlyRs was 1:5 of α:β, while the expression of γ2-containing GABAA receptors was 1:2:5 of α:β:γ2 [14, 15]. Chimeric GlyRs were described in a previous report. Site directed mutagenesis was performed by Charm Gene Science Mutagenex LLC. (Cumming, GA, USA). All the constructs were checked by full-length sequencing (SNPSaurus, Eugene, OR, USA).
(§2) In brief, patch electrodes (3–4 MΩ) were pulled from borosilicate glasses in a PC-100 puller (Narishige, Tokyo, Japan); then, they were filled with an intracellular solution, which contained (in mM) 120 CsCl, 8 EGTA, 10 HEPES (pH 7.4), 4 MgCl2, 0.5 GTP, and 2 ATP. The extracellular solution contained (in mM) 140 NaCl, 5.4 KCl, 2.0 CaCl2, 1.0 MgCl2, 10 HEPES (pH 7.4), and 10 glucose. Whole-cell patch-clamp recordings were performed at −60 mV with an Axoclamp 200B (Molecular Devices, Sunnyvale, CA, USA) or with HEKA EPC-10 (HEKA Elektronik GmbH, Reutlingen, Germany) amplifiers. […] Brief (3–5 s) pulses of agonist together with alkaloids were applied to cells. Stock solutions of the alkaloids were prepared in high purity distilled water. Aliquots of these stock solutions were diluted in reservoirs containing extracellular solution. […] The concentration–response curve parameters for the alkaloid inhibition (IC50, nH, and the maximal current inhibition) were obtained from the fitted curve of normalized concentration–response data points to the equation Iagonist = Imax (agonist)nH/((agonist)nH + (EC50)nH). The IC50 curves are best-fit mean ± SE from pooled data. […] The inhibition constant (Ki) was calculated using the Cheng–Prusoff equation (Ki = IC50/((2 + ([Agonist]/EC50)^nH)^1/nH − 1). The concentration of agonist corresponds to the sub-saturating agonist concentration used to obtain the IC50 for each alkaloid on a given GlyR subtype.

chimeric α1α2 GlyR = molecular target: T2, chimeric α1α2 GlyR (Rattus norvegicus, UniProt P07727+P22771, F345L/G282A/I268V/L342F/S324A); type: cell-based
T2 construct: Relevance of the ECD for the subunit-specific actions of gelsemine on α1GlyRs; expressed in transfected cells; host or cells: HEK293 (ATCC CRL-1573)
T2 sequence (P07727+P22771 with tags, fused parts or gaps P07727:I268V/P07727:G282A/P07727:S324A/P07727:L342F/P07727:F345L): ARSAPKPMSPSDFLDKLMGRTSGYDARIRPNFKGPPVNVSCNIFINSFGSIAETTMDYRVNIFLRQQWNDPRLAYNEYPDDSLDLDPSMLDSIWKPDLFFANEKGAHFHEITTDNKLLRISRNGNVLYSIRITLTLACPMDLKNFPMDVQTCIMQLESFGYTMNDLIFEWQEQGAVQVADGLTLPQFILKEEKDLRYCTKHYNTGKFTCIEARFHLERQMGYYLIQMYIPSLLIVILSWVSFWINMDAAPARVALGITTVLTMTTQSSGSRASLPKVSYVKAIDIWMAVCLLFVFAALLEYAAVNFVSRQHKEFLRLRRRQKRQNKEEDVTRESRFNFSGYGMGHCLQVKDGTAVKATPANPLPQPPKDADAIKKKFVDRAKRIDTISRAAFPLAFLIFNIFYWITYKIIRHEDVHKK
Description: as §1
as §2, with “The” for “The inhibition constant (Ki) was calculated using the Cheng–Prusoff equation (Ki = IC50/((2 + ([Agonist]/EC50)^nH)^1/nH − 1). The”

C=C[C@@]12CN(C)[C@H]3C[C@]14C(=Nc1ccccc14)[C@H]1C[C@@H]2[C@@H]3CO1 [koumine]
alkaloid sensitivity of glycine-evoked currents (in words) (α1GlyR F63A): not exert detectable effects

C=C[C@]12CN(C)[C@@H]3[C@H]4CO[C@H](C[C@H]41)[C@]1(C(=O)Nc4ccccc41)[C@@H]32 [gelsemine]
alkaloid sensitivity of glycine-evoked currents (in words) (α1GlyR F63A; F63A, gelsemine 10 μM or 200 μM, 2 mM glycine): insensitive | effect on glycine-evoked currents (in words) (chimeric α1α2 GlyR; 10 μM gelsemine, 35 μM glycine): potentiated

NCC(=O)O [glycine, reference compound]
EC50 (chimeric α1α2 GlyR; read-out: EC50 of agonist): 55 ± 3 µM
